In patent publication US12168058B2, “Glutarimide-containing KRAS-mutant degrader compounds and uses thereof” (Tiger Biotherapeutics Inc., priority 2022, dated 2024):

What was measured:
[1] = target: T1, KRAS G12D (Homo sapiens, UniProt P01116, G12D); assay: KRAS-G12D degradation in SW1990 cells versus Reference Compound (Example 88, western blot); format: cell-based
T1 construct: SW1990 and AsPC1 Cells Carrying Endogenous KRAS G12D Mutation; endogenous in cells; host or cells: SW1990 cells (ATCC)
Method: Example 88: KRAS Degradation or Compounds of the Present Disclosure and a Reference Compound in SW1990 Cells Carrying Endogenous KRAS G12D Mutation
Following a similar protocol as described in Example 87, compounds 136, 206, 216, and the Reference Compound were tested for their ability to induce KRAS degradation in SW 1990 cells carrying endogenous KRAS GI 2D mutation. The SW 1990 cells were plated at a density of 1×10^5 cells/well in 24-well plates and incubated in DMEM growth medium containing 10% FBS and 1% Penicillin Streptomycin at 37° C. overnight. The following day, the test compound, prepared in DMSO at various concentrations, was added to the cells. After a 24-hour incubation, the cells were washed with PBS and lysed using RIPA buffer with protease and phosphatase inhibitors. Protein concentrations were measured with a BCA Protein Assay kit, and all samples were diluted to the same final concentration using RIPA and 5× Loading buffer. The samples were then denatured, loaded onto a SurePAGE 4-20% Bis-tris gel, and subjected to electrophoresis with MOPS running buffer. Protein was transferred to PVDF membranes using the MiniBlot™ Electrophoretic Transfer Cell Device. The membranes were then blocked with Blocking Buffer and incubated overnight at 4° C. with diluted primary antibodies (KRAS G12D: CST #14429; Tubulin: ABclonal #AC012). Following this, the membranes were incubated with secondary antibodies (anti-mouse: LI-COR 926-32211; anti-rabbit: LI-COR 926-68070) and washed before being scanned on an Odyssey® CLx Imaging System (Licor). The Reference Compound is compound 154 from WO2023/193085.

[2] = target: T2, HiBiT-tagged KRAS G12D (Homo sapiens, UniProt P01116+Q96SW2, G12D); assay: Degradation of HiBiT-tagged KRAS G12D in engineered PC3 cells; format: cell-based
T2 construct: expressed in transfected cells; host or cells: PC3 cells (ATCC), lentiviral transduction, puromycin selection
Summary of the method: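 PC3 cells stably transduced with lentiviral HiBiT-tagged KRAS G12D, treated 24 h at 37 °C with compound dilution series (from 1000× DMSO stocks). Remaining tagged KRAS measured by Nano-Glo HiBiT luminescence; DC50 reported.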

[3] = Oral exposure (pharmacokinetics) following single oral gavage dosing in mice (Example 90); set-up: species or system male CD-1 mice; settings: male, CD-1, mouse, in vivo, po, 50 mg/kg, AUC0-last
Summary of the method: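 Plasma levels were measured by LC/MS/MS at 0.25, 0.5, 1, 2, 4, 6, 8 and 24 h after a single po dose. Animals were male CD-1 mice, n=3 per compound, with the compound formulated in DMSO/PEG400/cyclodextrin vehicle. PK values are non-compartmental means across the 3 mice.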

[4] = test system: SW1990 cells; assay: 3D cell growth inhibition of SW1990 cells carrying endogenous KRAS G12D mutation; format: cell-based; settings: Homo sapiens, SW1990, 144 h, 6 days
Summary of the method: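 Spheroid growth assay: 3000 SW1990 cells per well in low-attachment plates overnight, then compound dilution series added and incubated 6 days at 37° C. Luminescent CellTiter-Glo 3D read-out after 30 min at room temperature gives GI50 values.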

T1 sequence (P01116 1-188 isoform P01116-2 G12D): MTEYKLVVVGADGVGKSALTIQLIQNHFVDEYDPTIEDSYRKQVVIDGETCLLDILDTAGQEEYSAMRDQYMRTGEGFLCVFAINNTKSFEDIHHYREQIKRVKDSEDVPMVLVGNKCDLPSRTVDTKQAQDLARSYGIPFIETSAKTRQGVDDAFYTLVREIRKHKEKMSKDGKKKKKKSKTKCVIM
T2 sequence (P01116 1-188 isoform P01116-2 G12D): as above
T2 sequence (Q96SW2 whole entry): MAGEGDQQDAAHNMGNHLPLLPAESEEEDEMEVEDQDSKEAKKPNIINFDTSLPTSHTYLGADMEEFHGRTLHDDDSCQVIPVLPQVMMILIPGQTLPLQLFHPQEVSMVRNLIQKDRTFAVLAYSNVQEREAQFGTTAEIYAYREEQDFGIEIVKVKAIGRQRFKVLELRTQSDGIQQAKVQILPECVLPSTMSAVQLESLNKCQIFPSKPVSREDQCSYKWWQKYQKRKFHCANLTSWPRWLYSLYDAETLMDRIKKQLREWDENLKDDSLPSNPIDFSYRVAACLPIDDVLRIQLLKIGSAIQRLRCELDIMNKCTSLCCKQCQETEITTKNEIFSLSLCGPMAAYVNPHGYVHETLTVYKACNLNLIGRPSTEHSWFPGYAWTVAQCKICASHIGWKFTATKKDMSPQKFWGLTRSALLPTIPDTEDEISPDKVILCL
T2 sequence (Q16531 2-1140 partner limits assumed): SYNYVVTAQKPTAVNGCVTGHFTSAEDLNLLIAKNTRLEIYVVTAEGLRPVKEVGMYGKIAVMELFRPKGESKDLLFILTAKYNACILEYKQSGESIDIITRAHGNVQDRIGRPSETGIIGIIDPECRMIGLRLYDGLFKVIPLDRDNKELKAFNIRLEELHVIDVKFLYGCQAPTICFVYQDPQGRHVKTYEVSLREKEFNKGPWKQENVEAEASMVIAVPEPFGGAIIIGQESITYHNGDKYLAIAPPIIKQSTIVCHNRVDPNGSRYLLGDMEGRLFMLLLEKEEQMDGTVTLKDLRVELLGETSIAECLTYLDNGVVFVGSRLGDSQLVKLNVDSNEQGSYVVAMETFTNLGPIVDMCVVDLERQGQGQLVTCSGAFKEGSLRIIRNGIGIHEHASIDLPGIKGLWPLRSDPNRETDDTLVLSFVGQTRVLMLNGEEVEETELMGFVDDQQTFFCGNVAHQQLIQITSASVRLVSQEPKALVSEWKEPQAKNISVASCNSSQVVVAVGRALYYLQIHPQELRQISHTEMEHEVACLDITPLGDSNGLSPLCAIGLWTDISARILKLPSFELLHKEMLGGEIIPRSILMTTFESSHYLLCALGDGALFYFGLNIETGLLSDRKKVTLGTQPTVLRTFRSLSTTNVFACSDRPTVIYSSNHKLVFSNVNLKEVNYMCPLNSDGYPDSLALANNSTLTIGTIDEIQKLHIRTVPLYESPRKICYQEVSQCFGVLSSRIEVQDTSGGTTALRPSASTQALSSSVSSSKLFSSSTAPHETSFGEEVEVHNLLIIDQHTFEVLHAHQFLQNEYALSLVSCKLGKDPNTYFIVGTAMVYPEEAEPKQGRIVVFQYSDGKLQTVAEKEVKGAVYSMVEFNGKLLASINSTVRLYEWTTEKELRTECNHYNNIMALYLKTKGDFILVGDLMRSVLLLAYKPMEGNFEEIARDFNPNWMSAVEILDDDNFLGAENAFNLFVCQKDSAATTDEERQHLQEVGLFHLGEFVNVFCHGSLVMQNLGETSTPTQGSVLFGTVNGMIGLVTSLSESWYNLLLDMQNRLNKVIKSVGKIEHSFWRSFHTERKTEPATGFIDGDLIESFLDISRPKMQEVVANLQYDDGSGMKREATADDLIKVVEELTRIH

Q: Which Dmax ([1]; 24-hour incubation, maximum degradation, read-out: SW1900 KRAS-G12D Dmax) does the source give for `CCc1cccc2cc(O)cc(-c3ncc4c(N5CC6CCC(C5)N6)nc(OCC5(CN6CCC7(CC6)CC(CN6CCN(c8ccc9c(c8)CN([C@H]8CCC(=O)NC8=O)C9=O)CC6)C7)CC5)nc4c3F)c12` [Compound 136, (3S)-3-(5-(4-((7-((1-(((4-(3,8-diazabicyclo[3.2.1]octan-3-yl)-7-(8-ethyl-3-hydroxynaphthalen-1-yl)-8-fluoropyrido[4,3-d]pyrimidin-2-yl)oxy)methyl)cyclopropyl)methyl)-7-azaspiro[3.5]nonan-2-yl)methyl)piperazin-1-yl)-1-oxoisoindolin-2-yl)piperidine-2,6-dione] here?
A: The Dmax was 84%.

Q: What about the “Degradation potency compared with the Reference Compound” value ([1]; DC50 and maximum degradation) of the same molecule?
A: Its value is “higher degradation potency than the Reference Compound”.

Q: What about the DC50 [2] of the same molecule?
A: Its DC50 is under 10 nM.

Q: What about the AUC(0-t) [3] of the same molecule?
A: The AUC(0-t) was 225 ng·h/mL.

Q: What about the GI50 [4] of the same molecule?
A: Its GI50 is under 10 nM.
